Legend:
[1] = target: 72 kDa type IV collagenase (Homo sapiens, UniProt P08253); experiment: Inhibition of MMP2
[2] = target: Matrix metalloproteinase-9 (Homo sapiens, UniProt P14780); experiment: Inhibition of MMP9
[3] = Selectivity for MMP9 over MMP2
[4] = Cmax in rat at 0.5 mg/kg, iv; format: ADME, organism-based; parameters: dose 0.5 mg/kg, route intravenous; details: in vivo
[5] = Apparent elimination half life in rat at 0.5 mg/kg, iv; format: ADME, organism-based; parameters: dose 0.5 mg/kg, route intravenous; details: in vivo, read-out: beta t1/2 (converted)
[6] = AUC in rat at 0.5 mg/kg, iv; format: ADME, organism-based; parameters: dose 0.5 mg/kg, route intravenous; details: plasma
[7] = Volume of distribution at steady state in rat at 0.5 mg/kg, iv; format: ADME, organism-based; parameters: dose 0.5 mg/kg, route intravenous; details: in vivo, read-out: Vdss
[8] = Clearance in rat at 0.5 mg/kg, iv; format: ADME, organism-based; parameters: dose 0.5 mg/kg, route intravenous; details: in vivo
[9] = Metabolic stability in human liver microsomes assessed as half life […]; format: ADME, Microsome
[10] = Metabolic stability in rat liver microsomes assessed as half life […]; format: ADME, Microsome
[11] = Protein binding in rat at 0.5 mg/kg, iv; format: ADME, organism-based; parameters: dose 0.5 mg/kg, route intravenous; details: plasma, read-out: PPB (converted)
Interstitial collagenase = target: T1, Interstitial collagenase (Homo sapiens, UniProt P03956); experiment: Inhibition of MMP1
T1 sequence (P03956 whole entry): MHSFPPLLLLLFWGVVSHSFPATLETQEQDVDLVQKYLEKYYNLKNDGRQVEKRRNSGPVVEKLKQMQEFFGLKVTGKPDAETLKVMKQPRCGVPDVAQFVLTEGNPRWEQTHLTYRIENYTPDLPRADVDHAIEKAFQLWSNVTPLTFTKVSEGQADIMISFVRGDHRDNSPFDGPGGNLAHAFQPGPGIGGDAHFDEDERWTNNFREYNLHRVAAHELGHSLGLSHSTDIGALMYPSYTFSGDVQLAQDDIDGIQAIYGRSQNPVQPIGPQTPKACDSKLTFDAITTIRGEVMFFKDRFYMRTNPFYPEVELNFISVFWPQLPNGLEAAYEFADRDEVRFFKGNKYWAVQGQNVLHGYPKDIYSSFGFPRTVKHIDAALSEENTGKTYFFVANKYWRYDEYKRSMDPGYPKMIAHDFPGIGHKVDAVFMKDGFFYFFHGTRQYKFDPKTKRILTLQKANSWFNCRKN

[12] = Aqueous solubility at pH 2.0; format: physicochemical
[13] = Aqueous solubility at pH 7.0; format: physicochemical
Rattus norvegicus = experiment: Reduction of ischemia induced brain edema in Sprague-Dawley rat tMCAo model at 2 mg/kg, iv after 3 hrs; format: functional; parameters: scale not given: the % may be the effect or the level left
Collagenase 3 = Collagenase 3 (Homo sapiens, UniProt P45452); experiment: Inhibition of MMP13

Sequence of 72 kDa type IV collagenase (P08253 whole entry): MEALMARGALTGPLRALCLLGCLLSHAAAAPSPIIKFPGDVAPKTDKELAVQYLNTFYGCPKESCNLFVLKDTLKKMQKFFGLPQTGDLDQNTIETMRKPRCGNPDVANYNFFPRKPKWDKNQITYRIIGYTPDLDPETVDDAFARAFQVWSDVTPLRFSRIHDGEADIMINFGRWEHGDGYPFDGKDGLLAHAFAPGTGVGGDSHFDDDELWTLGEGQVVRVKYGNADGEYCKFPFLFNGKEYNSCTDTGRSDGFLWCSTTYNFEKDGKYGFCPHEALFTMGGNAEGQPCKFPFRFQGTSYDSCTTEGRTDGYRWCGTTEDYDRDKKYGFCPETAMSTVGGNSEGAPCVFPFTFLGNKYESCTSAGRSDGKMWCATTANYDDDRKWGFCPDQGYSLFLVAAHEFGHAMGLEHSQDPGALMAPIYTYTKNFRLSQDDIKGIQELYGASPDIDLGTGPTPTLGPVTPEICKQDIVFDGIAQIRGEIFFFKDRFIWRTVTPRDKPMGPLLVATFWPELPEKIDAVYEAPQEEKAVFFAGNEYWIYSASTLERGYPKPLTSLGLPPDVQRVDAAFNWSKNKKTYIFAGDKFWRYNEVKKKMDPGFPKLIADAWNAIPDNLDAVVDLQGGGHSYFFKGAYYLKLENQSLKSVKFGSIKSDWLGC
Sequence of Matrix metalloproteinase-9 (P14780 whole entry): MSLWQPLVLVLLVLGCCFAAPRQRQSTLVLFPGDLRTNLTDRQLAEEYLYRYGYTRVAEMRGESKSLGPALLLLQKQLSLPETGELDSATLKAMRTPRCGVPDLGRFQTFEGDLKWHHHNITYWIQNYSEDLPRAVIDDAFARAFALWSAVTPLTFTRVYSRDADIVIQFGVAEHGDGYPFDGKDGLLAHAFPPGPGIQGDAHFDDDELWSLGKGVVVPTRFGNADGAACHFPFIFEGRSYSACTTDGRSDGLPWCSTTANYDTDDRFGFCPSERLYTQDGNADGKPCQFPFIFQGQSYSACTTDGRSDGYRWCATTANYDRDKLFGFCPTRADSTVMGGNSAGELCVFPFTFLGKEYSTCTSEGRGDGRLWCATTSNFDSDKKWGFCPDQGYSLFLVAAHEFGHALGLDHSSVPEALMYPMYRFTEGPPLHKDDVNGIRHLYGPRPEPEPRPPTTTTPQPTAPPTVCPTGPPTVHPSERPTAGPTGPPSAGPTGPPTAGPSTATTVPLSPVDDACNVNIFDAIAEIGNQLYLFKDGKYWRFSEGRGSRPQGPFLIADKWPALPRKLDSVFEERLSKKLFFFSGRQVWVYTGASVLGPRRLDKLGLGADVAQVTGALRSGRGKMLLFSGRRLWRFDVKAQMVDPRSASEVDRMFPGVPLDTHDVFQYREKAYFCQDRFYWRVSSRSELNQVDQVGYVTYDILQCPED

SMILES | IC50 [1] | IC50 [2] | Ratio IC50 [3] | further results
C[C@@H]1CN([C@@H](CN(c2ccc(Oc3ccc(Cl)cc3)cc2)S(C)(=O)=O)C(=O)NO)C[C@H](C)O1 | 2.5 nM | 0.46 nM | 5.4 | –
CS(=O)(=O)N(C[C@@H](C(=O)NO)N1CCC(O)CC1)c1ccc(Oc2ccc(C(F)(F)F)cc2)cc1 | 5.7 nM | 1.9 nM | 3 | –
Cc1ccc(Oc2ccc(N(C[C@H](O)C(=O)NO)S(C)(=O)=O)cc2)cc1 | 61 nM | 7.8 nM | – | –
CNC(=O)C1CCN([C@@H](CN(c2ccc(Oc3ccc(C(F)(F)F)cc3)cc2)S(C)(=O)=O)C(=O)NO)CC1 | 5.5 nM | 2.5 nM | 2.2 | –
Cc1ccc(Oc2ccc(N(C[C@@H](NC(C)C)C(=O)NO)S(C)(=O)=O)cc2)cc1 | 178 nM | 31 nM | 5.7 | –
Cc1ccc(Oc2ccc(N(C[C@H](Nc3ccccc3)C(=O)NO)S(C)(=O)=O)cc2)cc1 | 13 nM | 0.52 nM | 25 | –
Cc1ccc(Oc2ccc(N(C[C@H](Nc3cccc(F)c3)C(=O)NO)S(C)(=O)=O)cc2)cc1 | – | 0.89 nM | 59.6 | Cmax [4]: 620 nM; half-life [5]: 36 min; AUC [6]: 130 ng·h/mL; Vd [7]: 2.89 L/kg; clearance [8]: 66.9 mL/min/kg; half-life [9]: < 9 min; half-life [10]: < 9 min; fraction unbound [11]: 0.003
CS(=O)(=O)N(C[C@H](O)C(=O)NO)c1ccc(Oc2ccc(Cl)cc2)cc1 | 35 nM | 4.7 nM | 7.4 | –
CS(=O)(=O)N(C[C@@H](C(=O)NO)N1CCCCC1)c1ccc(Oc2ccc(C(F)(F)F)cc2)cc1 | – | 2.3 nM | 3.3 | –
CS(=O)(=O)N1CCN([C@@H](CN(c2ccc(Oc3ccc(C(F)(F)F)cc3)cc2)S(C)(=O)=O)C(=O)NO)CC1 | 9.9 nM | 3.2 nM | 3.1 | –
Cc1ccc(Oc2ccc(N(C[C@H](NCc3cccnc3)C(=O)NO)S(C)(=O)=O)cc2)cc1 | 17 nM | 2.8 nM | 6.1 | –
CC(C)N[C@@H](CN(c1ccc(Oc2ccc(C(F)(F)F)cc2)cc1)S(C)(=O)=O)C(=O)NO | – | 2.4 nM | 3.8 | IC50 (Interstitial collagenase): > 10000 nM
Cc1ccc(Oc2ccc(N(C[C@@H](C(=O)NO)N3CCOCC3)S(C)(=O)=O)cc2)cc1 | 5.2 nM | 1.9 nM | 2.7 | solubility [12]: > 70 µg/mL; Cmax [4]: 3700 nM; half-life [5]: 360 min; AUC [6]: 670 ng·h/mL; Vd [7]: 0.66 L/kg; clearance [8]: 12.8 mL/min/kg; half-life [9]: > 120 min; half-life [10]: 10 min; fraction unbound [11]: 0.42; solubility [13]: > 70 µg/mL
CS(=O)(=O)N(C[C@@H](C(=O)NO)N1CCS(=O)(=O)CC1)c1ccc(Oc2ccc(C(F)(F)F)cc2)cc1 | 4.8 nM | 1.7 nM | 2.8 | –
CS(=O)(=O)N(C[C@@H](C(=O)NO)N1CCC(c2ccccc2)CC1)c1ccc(Oc2ccc(C(F)(F)F)cc2)cc1 | – | – | 2.7 | –
Cc1ccc(Oc2ccc(N(C[C@H](N[C@H](C)c3ccccc3)C(=O)NO)S(C)(=O)=O)cc2)cc1 | – | 1.5 nM | 16 | –
Cc1ccc(Oc2ccc(N(C[C@H](N[C@@H](C)c3ccccc3)C(=O)NO)S(C)(=O)=O)cc2)cc1 | 12 nM | – | 22.2 | IC50 (Interstitial collagenase): > 10000 nM
Cc1ccc(Oc2ccc(N(C[C@H](NCc3ccccc3)C(=O)NO)S(C)(=O)=O)cc2)cc1 | – | – | 28.4 | –
Cc1ccc(Oc2ccc(N(C[C@H](Nc3ccc4ccccc4c3)C(=O)NO)S(C)(=O)=O)cc2)cc1 | 1400 nM | – | 16.6 | –
Cc1ccc(Oc2ccc(N(C[C@H](NCc3ccncc3)C(=O)NO)S(C)(=O)=O)cc2)cc1 | – | 1.8 nM | 5.3 | –
CS(=O)(=O)N(C[C@@H](C(=O)NO)N1CCOCC1)c1ccc(Oc2ccc(Cl)cc2)cc1 | – | – | 2.8 | –

SMILES | IC50 [1] | IC50 [2] | Ratio IC50 [3] | further results
CC(C)N(CCNC(=O)OCc1ccccc1)[C@@H](CN(c1ccc(Oc2ccc(C(F)(F)F)cc2)cc1)S(C)(=O)=O)C(=O)NO | – | – | 9 | –
CS(=O)(=O)N(C[C@@H](C(=O)NO)N1CCOCC1)c1ccc(Oc2ccc(C(F)(F)F)cc2)cc1 | – | – | 3.2 | solubility [12]: > 70 µg/mL; Activity (Rattus norvegicus): 3.3%; Cmax [4]: 860 nM; half-life [5]: 12 min; AUC [6]: 130 ng·h/mL; Vd [7]: 0.99 L/kg; clearance [8]: 65.4 mL/min/kg; half-life [9]: > 120 min; half-life [10]: > 120 min; fraction unbound [11]: 0.26; solubility [13]: > 70 µg/mL
C[C@@H]1CN([C@@H](CN(c2ccc(Oc3ccc(C(F)(F)F)cc3)cc2)S(C)(=O)=O)C(=O)NO)C[C@H](C)O1 | 5.6 nM | 1.1 nM | 5.1 | –
CS(=O)(=O)N(C[C@@H](C(=O)NO)N1CCN(c2ccc(Cl)cc2)CC1)c1ccc(Oc2ccc(C(F)(F)F)cc2)cc1 | – | – | 2.7 | –
CC(=O)N1CCN([C@@H](CN(c2ccc(Oc3ccc(C(F)(F)F)cc3)cc2)S(C)(=O)=O)C(=O)NO)CC1 | – | – | 1.8 | –
Cc1ccc(Oc2ccc(N(C[C@H](NCc3ccccn3)C(=O)NO)S(C)(=O)=O)cc2)cc1 | – | – | 3.6 | –
CC(C)N(C)[C@@H](CN(c1ccc(Oc2ccc(C(F)(F)F)cc2)cc1)S(C)(=O)=O)C(=O)NO | 24 nM | 8.8 nM | 2.7 | –
Cc1ccc(Oc2ccc(N(C[C@H](Nc3ccc(F)cc3)C(=O)NO)S(C)(=O)=O)cc2)cc1 | – | 1.3 nM | 49.2 | –
CS(=O)(=O)N(C[C@H](O)C(=O)NO)c1ccc(Oc2ccc(C(F)(F)F)cc2)cc1 | 139 nM | 14 nM | 9.9 | IC50 (Interstitial collagenase): > 10000 nM
Cc1ccc(Oc2ccc(N(C[C@H](C(=O)NO)N3CCOCC3)S(C)(=O)=O)cc2)cc1 | – | – | 4.5 | –
Cc1ccc(Oc2ccc(N(C[C@H](N)C(=O)NO)S(C)(=O)=O)cc2)cc1 | – | – | 5.5 | –
Cc1ccc(Oc2ccc(N(C[C@H](NC(C)C)C(=O)NO)S(C)(=O)=O)cc2)cc1 | 4 nM | 0.52 nM | 7.7 | Cmax [4]: 2680 nM; half-life [5]: 9.6 min; AUC [6]: 250 ng·h/mL; Vd [7]: 0.49 L/kg; clearance [8]: 35 mL/min/kg; half-life [9]: 49 min; half-life [10]: < 9 min; fraction unbound [11]: 0.16
COc1cccc(N[C@@H](CN(c2ccc(Oc3ccc(C)cc3)cc2)S(C)(=O)=O)C(=O)NO)c1 | – | – | 43.5 | IC50 (Interstitial collagenase): > 10000 nM
Cc1ccc(Oc2ccc(N(C[C@H](NC(C)C)C(=O)O)S(C)(=O)=O)cc2)cc1 | > 10000 nM | > 10000 nM | – | IC50 (Interstitial collagenase): > 10000 nM
CC(C)N(Cc1ccccc1)[C@@H](CN(c1ccc(Oc2ccc(C(F)(F)F)cc2)cc1)S(C)(=O)=O)C(=O)NO | – | – | 4.1 | –
Cc1ccc(Oc2ccc(N(C[C@H](Nc3cccc(Cl)c3)C(=O)NO)S(C)(=O)=O)cc2)cc1 | – | 20 nM | 16.6 | –
O=C1NC(=O)C2(CCC(=O)N2c2ccc(Oc3ccc(Cl)cc3)cc2)C(=O)N1 | – | – | – | Ki [1]: 0.4 nM; Ki [2]: 0.7 nM; Ki (Collagenase 3): 1 nM
Cc1ccc(Oc2ccc(N(C[C@H](NC3CCCC3)C(=O)NO)S(C)(=O)=O)cc2)cc1 | – | – | 5.9 | –
Cc1ccc(Oc2ccc(N(C[C@H](NCC(C)C)C(=O)NO)S(C)(=O)=O)cc2)cc1 | 11 nM | 1.3 nM | 8.8 | IC50 (Interstitial collagenase): > 10000 nM
Cc1ccc(Oc2ccc(N(C[C@@H](C(=O)NO)N3C[C@@H](C)O[C@@H](C)C3)S(C)(=O)=O)cc2)cc1 | – | – | 4.1 | –
Cc1ccc(Oc2ccc(N(C[C@H](NC(=O)C(C)C)C(=O)NO)S(C)(=O)=O)cc2)cc1 | 70 nM | 5.4 nM | 13 | –

Reference: ChEMBL document CHEMBL1140820, “beta-N-Biaryl ether sulfonamide hydroxamates as potent gelatinase inhibitors: part 2. Optimization of alpha-amino substituents” (Bioorg Med Chem Lett, 2008)
